Measurements as given in PubChem BioAssay (NCI).
“And” between values parts separate entries of the source, which are not always exact repeats. Equal entries are not always repeated.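 Values below derive from 48-hour exposures of cells grown in 96-well plates, with endpoints linearly interpolated between the two concentrations bracketing the appropriate inhibition level. GI50 is the concentration that inhibits growth by half. TGI: concentration producing complete growth inhibition.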

What was measured:
Assay in all cases: NCI-60 cell line screen, 48 h
KM12 colon = test system: KM12 colon
IGROV1 ovarian = test system: IGROV1 ovarian
RXF 393 renal = test system: RXF 393 renal
COLO 205 colon = test system: COLO 205 colon
ACHN renal = test system: ACHN renal
A498 renal = test system: A498 renal
NCI-H522 lung = test system: NCI-H522 lung
SF-539 CNS = test system: SF-539 CNS
SF-295 CNS = test system: SF-295 CNS
NCI/ADR-RES ovarian = test system: NCI/ADR-RES ovarian

For COc1cc2ccc(CC(=O)O)cc2cc1OC, the TGI (KM12 colon) was > 100 µM, the TGI (IGROV1 ovarian) was > 100 µM and the TGI (RXF 393 renal) was > 100 µM. The TGI (COLO 205 colon) was > 100 µM, the TGI (ACHN renal) was > 100 µM and the TGI (A498 renal) was > 100 µM. The TGI (NCI-H522 lung) was > 100 µM.

With Cc1ccccc1NC(=O)C(=O)CC(=O)c1sc(-n2nc(-c3ccccc3)cc2-c2ccccc2)nc1C the TGI (KM12 colon) was > 100 µM, the TGI (SF-539 CNS) was > 100 µM and the TGI (IGROV1 ovarian) was > 100 µM. The TGI (RXF 393 renal) was > 100 µM, the TGI (COLO 205 colon) was > 100 µM and the TGI (ACHN renal) was > 100 µM. For the same molecule, the TGI (A498 renal) was > 100 µM, the TGI (NCI-H522 lung) was > 100 µM and the TGI (SF-295 CNS) was > 100 µM.

For NC(=O)C1C(=O)Oc2cccnc21 (stereo not given), the TGI (KM12 colon) was > 100 µM, the TGI (SF-539 CNS) was > 100 µM and the TGI (IGROV1 ovarian) was > 100 µM. The TGI (RXF 393 renal) was > 100 µM, the TGI (COLO 205 colon) was > 100 µM and the TGI (ACHN renal) was > 100 µM. For the same molecule, the TGI (NCI-H522 lung) was > 100 µM and the TGI (SF-295 CNS) was > 100 µM.

COc1cc(COC(=O)N(C)[C@@H](Cc2ccccc2)C(=O)O)c([N+](=O)[O-])cc1OC was tested, and the TGI (KM12 colon) was > 100 µM, the TGI (SF-539 CNS) was > 100 µM and the TGI (NCI/ADR-RES ovarian) was > 100 µM. For the same molecule, the TGI (IGROV1 ovarian) was > 100 µM, the TGI (ACHN renal) was > 100 µM and the TGI (SF-295 CNS) was > 100 µM.

With Cc1ccc(/C=C2\CCCC(C(NO)c3ccc(C)cc3)C2=NO)cc1 (stereo not given) the TGI (KM12 colon) was 45.1 µM, the TGI (SF-539 CNS) was > 100 µM and the TGI (IGROV1 ovarian) was > 100 µM. For the same molecule, the TGI (RXF 393 renal) was 71.9 µM, the TGI (COLO 205 colon) was 38.5 µM and the TGI (ACHN renal) was > 100 µM. The TGI (A498 renal) was > 100 µM and the TGI (NCI-H522 lung) was 76.1 µM.

In the case of Cc1cn([C@H]2CN(O)C[C@@H](CO)O2)c(=O)[nH]c1=O, the TGI (KM12 colon) is reported as > 100 µM, the TGI (SF-539 CNS) is reported as > 100 µM and the TGI (IGROV1 ovarian) is reported as > 100 µM. For the same molecule, the TGI (RXF 393 renal) was > 100 µM, the TGI (COLO 205 colon) was > 100 µM and the TGI (ACHN renal) was > 100 µM. For the same molecule, the TGI (A498 renal) was > 100 µM and the TGI (SF-295 CNS) was > 100 µM.

CN(C)CCC(/C=C/c1ccccc1)=N\Nc1c(F)c(F)c(F)c(F)c1F was tested, and the TGI (KM12 colon) was > 100 µM, the TGI (SF-539 CNS) was > 100 µM and the TGI (IGROV1 ovarian) was > 100 µM. For the same molecule, the TGI (RXF 393 renal) was > 100 µM, the TGI (COLO 205 colon) was > 100 µM and the TGI (ACHN renal) was > 100 µM. For the same molecule, the TGI (A498 renal) was > 100 µM, the TGI (NCI-H522 lung) was > 100 µM and the TGI (SF-295 CNS) was > 100 µM.

With Nc1c([N+](=O)[O-])ncn1C1OC(CO)C(O)C1O (stereo not given) the GI50 (KM12 colon) was > 100 µM, the TGI (KM12 colon) was > 100 µM and the GI50 (SF-539 CNS) was > 100 µM. The TGI (SF-539 CNS) was > 100 µM, the GI50 (IGROV1 ovarian) was > 100 µM and the TGI (IGROV1 ovarian) was > 100 µM. The GI50 (RXF 393 renal) was > 100 µM, the TGI (RXF 393 renal) was > 100 µM and the GI50 (COLO 205 colon) was > 100 µM. For the same molecule, the TGI (COLO 205 colon) was > 100 µM, the GI50 (ACHN renal) was > 100 µM and the TGI (ACHN renal) was > 100 µM. The GI50 (A498 renal) was > 100 µM, the TGI (A498 renal) was > 100 µM and the GI50 (NCI-H522 lung) was > 100 µM. For the same molecule, the TGI (NCI-H522 lung) was > 100 µM, the GI50 (SF-295 CNS) was > 100 µM and the TGI (SF-295 CNS) was > 100 µM.

In the case of COC(=O)C1C(=O)NC2(C)CC1c1ccccc1O2 (stereo not given), the TGI (KM12 colon) is reported as > 100 µM, the TGI (SF-539 CNS) is reported as > 100 µM and the TGI (IGROV1 ovarian) is reported as > 100 µM. The TGI (RXF 393 renal) was > 100 µM, the TGI (ACHN renal) was > 100 µM and the TGI (A498 renal) was > 100 µM. For the same molecule, the TGI (NCI-H522 lung) was > 100 µM and the TGI (SF-295 CNS) was > 100 µM.

In the case of O=C(CC/C(CC(=O)c1ccc(Cl)cc1)=N\O)Nc1cccc(Cl)c1, the TGI (KM12 colon) is reported as > 100 µM, the TGI (SF-539 CNS) is reported as > 100 µM and the TGI (IGROV1 ovarian) is reported as > 100 µM. The TGI (COLO 205 colon) was > 100 µM, the TGI (ACHN renal) was > 100 µM and the TGI (A498 renal) was > 100 µM. For the same molecule, the TGI (SF-295 CNS) was > 100 µM.

For CC1(O)CC2C(CC1SCc1ccccc1)C2(C)C (stereo not given), the TGI (KM12 colon) was 50.8 µM and 34.6 µM, the TGI (SF-539 CNS) was 60.2 µM and 33.4 µM and the GI50 (IGROV1 ovarian) was 38.8 µM and 15.4 µM. The TGI (IGROV1 ovarian) was > 100 µM and 28.9 µM, the TGI (RXF 393 renal) was 35.6 µM and 28.6 µM and the TGI (COLO 205 colon) was 35.6 µM and 30.6 µM. The TGI (ACHN renal) was 34.5 µM and 30.4 µM, the TGI (A498 renal) was 57.9 µM and 32.5 µM and the TGI (NCI-H522 lung) was 29.1 µM and 25.2 µM. It also gave a TGI (SF-295 CNS) of 43.4 µM.

CCOC(=O)c1cnc2c(ccc3ncccc32)c1OCC was tested, and the TGI (KM12 colon) was > 100 µM, the TGI (SF-539 CNS) was > 100 µM and the TGI (IGROV1 ovarian) was > 100 µM. The TGI (RXF 393 renal) was > 100 µM, the TGI (COLO 205 colon) was > 100 µM and the TGI (ACHN renal) was > 100 µM. For the same molecule, the TGI (A498 renal) was > 100 µM and the TGI (NCI-H522 lung) was > 100 µM.

With Cc1cc(N(CCC#N)CCC#N)ccc1/C=C1N=C(/C=C\c2ccccc2)N(c2ccc(C(=O)O)cc2)C\1=O the TGI (KM12 colon) was > 100 µM, the TGI (SF-539 CNS) was > 100 µM and the TGI (IGROV1 ovarian) was > 100 µM. For the same molecule, the TGI (COLO 205 colon) was > 100 µM, the TGI (ACHN renal) was > 100 µM and the TGI (A498 renal) was > 100 µM. For the same molecule, the TGI (NCI-H522 lung) was > 100 µM and the TGI (SF-295 CNS) was > 100 µM.

In the case of COc1cc2c(cc1OC)C(Sc1ccc(Cl)cc1)c1c(nc(N)c(C#N)c1N)O2 (stereo not given), the GI50 (KM12 colon) is reported as 1.75 µM, the TGI (KM12 colon) is reported as 3.35 µM and the GI50 (SF-539 CNS) is reported as 1.61 µM. For the same molecule, the TGI (SF-539 CNS) was 3.03 µM, the GI50 (IGROV1 ovarian) was 1.07 µM and the TGI (IGROV1 ovarian) was 2.88 µM. For the same molecule, the GI50 (RXF 393 renal) was 1.39 µM, the TGI (RXF 393 renal) was 2.77 µM and the GI50 (COLO 205 colon) was 1.43 µM. It also gave a TGI (COLO 205 colon) of 2.95 µM, a GI50 (ACHN renal) of 1.59 µM and a TGI (ACHN renal) of 2.95 µM. The GI50 (A498 renal) was 1.73 µM, the TGI (A498 renal) was 5.01 µM and the GI50 (NCI-H522 lung) was 1.29 µM. It also gave a TGI (NCI-H522 lung) of 2.64 µM, a GI50 (SF-295 CNS) of 1.83 µM and a TGI (SF-295 CNS) of 3.31 µM.

NC(=O)N1N=C2c3ccccc3OC[C@H]2[C@@H]1c1ccccc1 was tested, and the TGI (KM12 colon) was 16.6 µM, the TGI (SF-539 CNS) was 19.1 µM and the TGI (IGROV1 ovarian) was > 100 µM. For the same molecule, the TGI (RXF 393 renal) was 8.7 µM, the TGI (COLO 205 colon) was 51.5 µM and the TGI (ACHN renal) was > 100 µM. The TGI (A498 renal) was > 81.5 µM, the TGI (NCI-H522 lung) was 12.7 µM and the TGI (SF-295 CNS) was > 35.7 µM.

CC1(C)O[C@@H](CCl)C[C@@H](C#N)O1 was tested, and the TGI (KM12 colon) was > 100 µM, the TGI (SF-539 CNS) was > 100 µM and the TGI (IGROV1 ovarian) was > 100 µM. The TGI (RXF 393 renal) was > 100 µM, the TGI (COLO 205 colon) was > 100 µM and the TGI (ACHN renal) was > 100 µM. For the same molecule, the TGI (A498 renal) was > 100 µM, the TGI (NCI-H522 lung) was > 100 µM and the TGI (SF-295 CNS) was > 100 µM.
